Measurements taken from patent US20220370473A1, “USE OF A BENZODIAZEPINE DERIVATIVE AND METHOD OF TREATMENT OF TRAUMATIC BRAIN INJURY” (CENTRO DE INVESTIGACION Y […] MEDICAMENTOS (CIDEM), priority 2019, published 2022).

What was measured:
Assay type in all cases: in vivo, Male Wistar rats
p-Akt = test: Western blotting of p-Akt in brain tissue; settings: TBI group vs control and TBI+JM-20 groups, p<0.05, FIG. 8
Experimental: (§1) Male Wistar rats (200-250 g), with an average age of 60 days were used, conditioned in boxes with food and water at will. Procedures were performed pursuant to the rules of the Animal Ethics and Welfare Committee UFSM (9426190418).
(§2) TBI was induced through the weight-drop model (MANNIX, R. et al. Chronic Gliosis and Behavioral Deficits in Mice Following Repetitive Mild Traumatic Brain Injury. Journal of Neurosurgery. 2014) A 54 g weight was used released from a 100 cm height freely falling on the animals head. […]
(§3) The Western blot test was performed according to Gerbatin et al (2017) with some adjustments (GERBATIN, R. D. R. et al. Guanosine Protects Against Traumatic Brain Injury-Induced Functional Impairments and Neuronal Loss by Modulating Excitotoxicity, Mitochondrial Dysfunction, and Inflammation. Molecular Neurobiology. 54(10):7585-7596. 2017.). […] The protein concentration of each sample was determined by the bicinchonininc acid protein assay (Thermo Fisher Scientific). […]
(§4) The mouse anti-β-actin antibody (1: 10,000, Santa Cruz Biotechnology, Santa Cruz, Calif., EE. UU.) was dyed as an additional control to the protein load. […] Then the bands were quantified using the Image Lab software (Bio-Rad).

iba-1 = test: Western blotting of iba-1 in brain tissue; settings: TBI group vs control, JM-20 and TBI+JM-20, p<0.01, FIG. 9
Experimental: as §1, §2, §3, §4

TBI = test: Overall assessment in animal models after a TBI; settings: motor performance; cerebral edema; astrocyte reactivity; microglial activation; pro-survival pathway activation
Experimental: as §1
(§5) TBI was induced through the weight-drop model (MANNIX, R. et al. Chronic Gliosis and Behavioral Deficits in Mice Following Repetitive Mild Traumatic Brain Injury. Journal of Neurosurgery. 2014) A 54 g weight was used released from a 100 cm height freely falling on the animals head. Animals were suspended on aluminum foil, with small cuts to ensure it would break with the impact of the weight allowing for the sudden acceleration of the movement, thus tearing the aluminum foil and falling over a sponge. TBI-induced animals were previously anesthetized with 2% isoflurane. In addition, topical lidocaine was applied to the animals' head to minimize posttraumatic pain (MYCHASIUK, R. et al. A Novel Model of Mild Traumatic Brain Injury for Juvenile Rats. Journal of Visualized Experiments. 2014)

TBI-induced rats [1] = test: Open field test after weight-drop TBI; settings: TBI group vs control and TBI+JM-20 group, p<0.05; FIG. 3
Experimental: as §1, §5
Animals were placed in the central area of an open field (56 cm diameter) that had its surface divided into equal parts. The duration of the test was 300 seconds. The number of times animals walked around the quadrants, the number of their exploratory responses (rearings) and their immobility time were analyzed.

TBI-induced rats [2] = test: Beam-walking test after weight-drop TBI; settings: TBI group vs control and JM-20 (alone) groups, p<0.05; FIG. 5
Experimental: as §1
as §5, with “In addition, topical lidocaine was applied to the animals' head to minimize posttraumatic pain (MYCHASIUK, R. et al. A Novel Model of Mild Traumatic Brain Injury for Juvenile Rats. Journal of Visualized Experiments. 2014)” left out
The beam-walking test (HAUSSER, N. et al. Detecting Behavioral Deficits in Rats After Traumatic Brain Injury. J. Vis. Exp. (131), e56044, doi:10.3791/56044. 2018.) consists in animals walking on a hanging wooden beam (2.5 cm wide and 100 cm long) to reach a black wooden box placed at the end of the apparatus. […] Three attempts were analyzed. […] The day of the test, the times of each attempt were recorded and their values were averaged.

TBI-induced rats [3] = test: Rotarod test after weight-drop TBI; settings: TBI group vs control, JM-20 and TBI+JM-20 groups, p<0.05; FIG. 1
Experimental: as §1, §5
Animals were trained for 5 minutes before the TBI so they could adapt to the apparatus. The testing session comprised 5 trials and concluded when animals fell off the rotor (3.7 cm diameter, velocity 25-30 rpm) or after the cutoff time, i.e. 300 s. (Whishaw et al., 2003). The first fall latency was analyzed.

TBI-induced rats [4] = test: Cerebral edema (brain water content, wet-dry method); settings: 24 h after TBI; TBI group vs control and TBI+JM-20 groups, p<0.05; FIG. 6
Experimental: as §1
as §5, with “In addition, topical lidocaine was applied to the animals' head to minimize posttraumatic pain (MYCHASIUK, R. et al. A Novel Model of Mild Traumatic Brain Injury for Juvenile Rats. Journal of Visualized Experiments. 2014)” left out
The cerebral edema was determined measuring the water content of the brain using the wet-dry method described by Chen et al (2014) (CHEN, W. et al. Neuroprotective effect of allicin against traumatic brain injury via Akt/endothelial nitric oxide synthase pathway-mediated anti-inflammatory and anti-oxidative activities. Neurochemistry International. 68:28-37. 2014) Twenty-four hours after the TBI, the animals were sacrificed and their brains were rapidly removed and weighed to determine their wet weight. […] The water content of the brain was calculated using the following formula: […]

GFAP = test: Western blotting of GFAP in brain tissue; settings: cortex and hippocampus; all groups; FIGS. 11 and 12
Experimental: as §1, §2, §3, §4

SMILES: CCOC(=O)C1=C(C)NC2=C(C=Nc3ccccc3N2)C1c1ccccc1[N+](=O)[O-] (centres unmarked) [JM-20, 3-ethoxycarbonyl-2-methyl-4-(2-nitrophenyl)-4,11-dihydro-1H-pyridol[2,3-b][1,5]benzodiazepine]
- p-Akt expression in hippocampus (p-Akt): decreased in TBI groups
- iba-1 expression in cerebral cortex (iba-1): increased in TBI groups, both in the cerebral cortex in comparison with all the groups
- effect on TBI adverse effects (behavioral, morphological and biochemical changes) (TBI): effective in reducing and, in some cases, reversing TBI adverse effects
- number of rearings during the open field test (TBI-induced rats [1]): a higher number of rearings was observed in comparison with the control and the TBI+JM-20 group
- time to complete the beam-walk test (TBI-induced rats [2]): rats in the TBI group took longer to complete the course than the control and JM-20 groups
- first fall latency time on the rotarod test (TBI-induced rats [3]): animals who suffered a TBI showed a reduction of the first fall latency time on the rotarod test in contrast with the other groups
- brain water content (TBI-induced rats [4]): increased in the TBI group in contrast with the control and TBI +JM-20 groups
- GFAP expression (GFAP): showed no changes in any of the groups
